For orientation: IC50 means the concentration that inhibits the measured activity by half. A lower IC50 goes with inhibition by little substance.

Molecules are shown by their SMILES.

The values below come from patent publication US10829487B2, “Benzylamino substituted pyridopyrimidinones and derivatives as SOS1 inhibitors” (Boehringer Ingelheim International GmbH, priority 2017, dated 2020).

The target in this assay is protein-protein interaction between SOS1 and KRAS G12D (Homo sapiens (Human), UniProt Q07889). Nature of the assay: KRAS::SOS1 AlphaScreen Binding Assay. From the text:
KRAS::SOS1 AlphaScreen Binding Assay
Low IC50 values are indicative of high potency of the SOS1 inhibitor compound in this assay setting:
Reagents: • GST-tagged SOS1 (564_1049_GST_TEV_ECO) produced in-house • GST-TEV-SOS1 (564-1049) is purchased from Viva Biotech Ltd. • 6×His-Tev-K-RasG12D(1-169)Avi is purchased from Xtal BioStructures, Inc. (Lot # X129-110) • GDP (Sigma Cat No G7127) • AlphaLISA Glutathione Acceptor Beads (PerkinElmer, Cat No AL109) • AlphaScreen Streptavidin Donor Beads (PerkinElmer Cat No 6760002) • Assay plates: Proxiplate-384 PLUS, white (PerkinElmer, Cat No 6008289)
10 nM (final assay concentration) KRAS G12D, 10 μM (final assay concentration) GDP and 5 nM (final assay concentration) GST-SOS1 are mixed in assay buffer prior to use and kept at room temperature.
AlphaLISA Glutathione Acceptor Beads and AlphaScreen Streptavidin Donor Beads are mixed in assay buffer at a concentration of 10 μg/mL (final assay concentration) each prior to use and kept at room temperature.
Compounds are diluted to a final start concentration of 100 μM and are tested in duplicate. Assay-ready plates (ARPs) are generated using an Access Labcyte Workstation with a Labcyte Echo 550 or 555 accoustic dispenser. For compound a start concentration of 100 μM, 150 nL of compound solution is transferred per well in 11 concentrations in duplicate with serial 1:5 dilutions.
The assay is run using a fully automated robotic system in a darkened room below 100 Lux. 10 μL of KRAS::SOS1 GDP mix is added into columns 1-24 to the 150 nL of compound solution (final dilution in the assay 1:100, final DMSO concentration 1%).
After a 30 minute incubation time 5 μL of bead mix is added into columns 1-23. Plates are kept at room temperature in a darkened incubator. After a further 60 minute incubation, the signal is measured using a PerkinElmer Envision HTS Multilabel Reader using the AlphaScreen specifications from PerkinElmer. Each plate contains the following controls: • diluted DMSO+KRAS::SOS1 GDP mix+bead mix • diluted DMSO+KRAS::SOS1 GDP mix
IC50 values are calculated and analyzed using a 4 parametric logistic model.

Setting [1] is: Table 20, KRAS::SOS1 AlphaScreen (SOS1 / KRAS G12D).
Setting [2] is: KRAS G12D::SOS1 AlphaScreen, measured without EDTA unless marked with an asterisk.

Chain of protein-protein interaction between SOS1 and KRAS G12D (Q07889 564-1049, stated change not applied): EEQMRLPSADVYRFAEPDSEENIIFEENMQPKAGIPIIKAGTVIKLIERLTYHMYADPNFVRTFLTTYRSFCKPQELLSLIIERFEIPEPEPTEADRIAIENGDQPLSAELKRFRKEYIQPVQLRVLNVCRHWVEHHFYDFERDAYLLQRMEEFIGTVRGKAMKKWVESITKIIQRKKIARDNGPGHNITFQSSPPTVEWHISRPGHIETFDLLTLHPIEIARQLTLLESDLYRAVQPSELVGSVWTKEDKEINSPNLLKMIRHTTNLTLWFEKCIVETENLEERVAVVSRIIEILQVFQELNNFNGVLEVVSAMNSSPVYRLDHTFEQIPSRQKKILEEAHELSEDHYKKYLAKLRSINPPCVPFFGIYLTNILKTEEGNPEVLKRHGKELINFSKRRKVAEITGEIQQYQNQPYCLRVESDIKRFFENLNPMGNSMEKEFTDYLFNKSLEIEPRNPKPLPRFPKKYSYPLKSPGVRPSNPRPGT

Regarding `Cc1nc(N[C@H](C)c2cccc(C(F)(F)C3CCCO3)c2)c2cn(C3(C(F)F)CC3)c(=O)c(F)c2n1` (stereo partly drawn) [I-93], the IC50 under setting [1] came to 3 nM.
Compound `C[C@@H](Nc1ncnc2cc(=O)n(C3(C)CC3)cc12)c1cccc2c1CCC2=O` [I-105] displayed a half-inhibitory concentration (IC50) under setting [2] of 25 nM.
The same measure, in the same setting: under `Cc1nc(N[C@H](C)c2cccc(C(F)F)c2F)c2cn(C3(C(F)(F)F)CCOC3)c(=O)cc2n1` (stereo partly drawn) [I-117] stands 9 nM.
In the case of `Cc1nc(N[C@H](C)c2cccc(C(F)(F)F)c2C)c2cn(C3(C)CC(F)(F)C3)c(=O)cc2n1` [I-46], the IC50 under setting [1] turned out to be 31 nM.
Still for that read-out and setting: the result for `Cc1nc(N[C@H](C)c2cccc3c2CCC3(F)F)c2cn(C34CCN(CC3)C4)c(=O)cc2n1` [I-60] reads 2 nM.
Still for that read-out and setting: the result for `Cc1nc(N[C@H](C)c2cccc(CC(F)(F)F)c2)c2cn(C3(C(F)F)CC3)c(=O)cc2n1` [I-100] reads 30 nM.
On the same count and under the same terms, the result for `Cc1nc(N[C@H](C)c2cccc(C(F)F)c2C)c2cn(C34CCC(C(=O)N(C)C)(CC3)C4)c(=O)cc2n1` [I-24] reads 10 nM.
Turning to `Cc1nc(N[C@H](C)c2cccc(C(F)(F)F)c2)c2cn(C34CCC(CC3)C4)c(=O)cc2n1` [I-115], the IC50 under setting [2] is 10 nM.
The same measure, in the same setting: under `Cc1nc(N[C@H](C)c2cccc(C(F)F)c2F)c2cn(C34CCC(CC3)CC4)c(=O)cc2n1` [I-120] stands 6 nM.
Consider `Cc1nc(N[C@H](C)c2cccc(C(F)(F)F)c2F)c2cn([C@@H]3CCOC3)c(=O)cc2n1` [I-33], for which the IC50 under setting [1] amounted to 38 nM.
Still for that read-out and setting: under `Cc1nc(N[C@H](C)c2cccc(C(F)(F)C(C)(C)O)c2F)c2cn(C34CC(F)(C3)C4)c(=O)c(F)c2n1` [I-91] stands 4 nM.
The same measure, in the same setting: under `Cc1nc(N[C@H](C)c2cccc(C(F)F)c2F)c2cn(C3(c4ccncc4)CC3)c(=O)cc2n1` [I-7] stands 8 nM.
Under setting [2], `Cc1nc(N[C@H](C)c2cccc(C(F)(F)F)c2)c2cn(C(C)(C)C)c(=O)cc2n1` [I-110] came in with an IC50 of 25 nM.
`Cc1nc(N[C@H](C)c2cccc(C(F)(F)F)c2F)c2cn([C@H]3[C@@H]4COC[C@@H]43)c(=O)cc2n1` [I-32] came in with an IC50 under setting [1] of 12 nM.
The same measure, in the same setting: under `Cc1nc(N[C@H](C)c2cccc(C(F)(F)F)c2)c2cn(C3CCCC3)c(=O)cc2n1` [I-28] stands 27 nM; under `Cc1nc(N[C@H](C)c2cccc(C(F)F)c2F)c2cn(C3(CF)CC3)c(=O)cc2n1` [I-2], 4 nM.
Under setting [1], `Cc1nc(N[C@H](C)c2cccc(C(F)F)c2F)c2cn(C3CCOCC3)c(=O)cc2n1` [I-18] showed an IC50 of 5 nM.
Same read-out and setting: under `Cc1nc(N[C@H](C)c2cccc(C(F)(F)F)c2)c2cn(C3CCCCC3)c(=O)cc2n1` [I-29] stands 24 nM.
`Cc1c(=O)n(C2(C)CC2)cc2c(N[C@H](C)c3cccc(C(C)(F)F)c3F)ncnc12` [I-174] yielded an IC50 under setting [2] of 9 nM.
Compound `Cc1nc(N[C@H](C)c2cccc(C(F)(F)C3CCCO3)c2)c2cn(C3(C)CC3)c(=O)c(F)c2n1` (stereo partly drawn) [I-92] returned a concentration for half-maximal inhibition (IC50) under setting [1] of 4 nM.
The same measure, in the same setting: the result for `Cc1nc(N[C@H](C)c2cccc(C(F)(F)F)c2C)c2cn([C@H]3C[C@@H](O)C3)c(=O)cc2n1` [I-44] reads 12 nM.
Consider `Cc1c(=O)n(C2(CF)CC2)cc2c(N[C@H](C)c3cccc(C(C)(F)F)c3F)ncnc12` [I-175], for which the IC50 under setting [2] was determined as 13 nM.
On to `Cc1nc(N[C@H](C)c2cccc(C(F)F)c2F)c2cn(C34CC(F)(C3)C4)c(=O)cc2n1` [I-16], for which the IC50 under setting [1] was found to be 12 nM.
`C[C@@H](Nc1ncnc2cc(=O)n(C3(CF)CC3)cc12)c1cccc(C(F)F)c1F` [I-63] showed an IC50 under setting [1] of 7 nM.
As to `Cc1nc(N[C@H](C)c2cccc(C(F)F)c2F)c2cn(C34CCC(O)(CC3)CC4)c(=O)cc2n1` [I-122], the half-inhibitory concentration (IC50) under setting [2] was 3 nM.
`C[C@@H](Nc1ncnc2cc(=O)n(C3(C)CC3)cc12)c1cccc(C(C)(F)F)c1F` [I-76]: under setting [1], the 50% inhibitory concentration (IC50) was determined as 7 nM.
On to `Cc1c(=O)n(C23CC(F)(C2)C3)cc2c(N[C@H](C)c3cccc(C(F)(F)C(C)(C)O)c3F)ncnc12` [I-178], for which the half-maximal inhibitory concentration (IC50) under setting [2] worked out at 5 nM.
With `Cc1nc(N[C@H](C)c2cccc(C(F)(F)F)c2C)c2cn([C@H]3C[C@@](O)(C(F)(F)F)C3)c(=O)cc2n1` [I-48], the IC50 under setting [1] was 27 nM.
On the same count and under the same terms, under `Cc1nc(N[C@H](C)c2cccc(C(C)(F)F)c2F)c2cn(C3(C(F)(F)F)CC3)c(=O)cc2n1` [I-55] stands 13 nM.
For the compound `Cc1c(=O)n([C@H]2C[C@H](F)C2)cc2c(N[C@H](C)c3cccc(C(F)F)c3F)ncnc12` [I-168], the half-maximal inhibitory concentration (IC50) under setting [2] was found to be 9 nM.
On to `C[C@@H](Nc1ncnc2cc(=O)n(C34CC(C3)C4)cc12)c1cccc2c1CCC2=O` [I-107], for which the IC50 under setting [2] is 17 nM.
For `Cc1nc(N[C@H](C)c2cccc(C(F)(F)F)c2C)c2cn(C3CCC3)c(=O)cc2n1` [I-41], the IC50 under setting [1] amounted to 14 nM.
Still for that read-out and setting: under `Cc1nc(N[C@H](C)c2cccc(C(F)F)c2F)c2cn(C34CC(C3)C4)c(=O)cc2n1` [I-15] stands 8 nM.
Compound `Cc1nc(N[C@H](C)c2cccc(C(F)(F)F)c2F)c2cn([C@H]3CCOC3)c(=O)cc2n1` [I-34] registered an IC50 under setting [1] of 39 nM.
Still for that read-out and setting: the result for `Cc1nc(N[C@H](C)c2cccc(C(F)F)c2F)c2cn(C3(C)CCC3)c(=O)cc2n1` [I-11] reads 5 nM; that for `Cc1nc(N[C@H](C)c2cccc(C(F)F)c2F)c2cn(C34CC(N5CCOCC5)(C3)C4)c(=O)cc2n1` [I-17], 5 nM.
The compound `Cc1c(=O)n(C2CC23CC3)cc2c(N[C@H](C)c3cccc(C(F)F)c3F)ncnc12` (stereo partly drawn) [I-167] came in with an IC50 under setting [2] of 36 nM.
`C[C@@H](Nc1ncnc2cc(=O)n(C3(C(F)(F)F)CC3)cc12)c1cccc(C(F)F)c1F` [I-65] came in with an IC50 under setting [1] of 10 nM.
On the same count and under the same terms, the result for `Cc1nc(N[C@H](C)c2cccc(C(F)(F)F)c2)c2cn(C3CC3)c(=O)cc2n1` [I-26] reads 37 nM; that for `C[C@@H](Nc1ncnc2cc(=O)n(C3(CF)CC3)cc12)c1cccc(C(C)(F)F)c1F` [I-77], 6 nM.
Take `Cc1nc(N[C@H](C)c2cccc(C(F)(F)F)c2)c2cn(C3(C)CCN(C)CC3)c(=O)cc2n1` [I-114]: the 50% inhibitory concentration (IC50) under setting [2] stood at 26 nM.
Consider `Cc1nc(N[C@H](C)c2cccc(C(C)(F)F)c2F)c2cn(C34CC(F)(C3)C4)c(=O)cc2n1` [I-56], for which the IC50 under setting [1] was determined as 15 nM.
As for `Cc1nc(N[C@H](C)c2cccc(C(F)F)c2F)c2cn([C@@]3(C(F)(F)F)CCOC3)c(=O)cc2n1` [I-118], the IC50 under setting [2] turned out to be 20 nM.
`Cc1nc(N[C@H](C)c2cccc(C(F)F)c2F)c2cn([C@H]3C[C@H](F)C3)c(=O)cc2n1` [I-12]: the IC50 under setting [1] came out at 7 nM.
The same measure, in the same setting: under `Cc1nc(N[C@H](C)c2cccc(C(F)(F)[C@@H]3CCCO3)c2F)c2cn(C3(C(F)F)CC3)c(=O)c(F)c2n1` [I-95] stands 5 nM.
Under setting [2], `Cc1nc(N[C@H](C)c2cccc(C(F)(F)F)c2)c2cn(C3(C)CCOCC3)c(=O)cc2n1` [I-112] returned an IC50 of 13 nM.
`Cc1nc(N[C@H](C)c2cccc(C(F)F)c2F)c2cn(C34CCC(CC3)C4)c(=O)cc2n1` [I-19] returned an IC50 under setting [1] of 2 nM.
Consider `Cc1nc(N[C@H](C)c2cccc(C(F)(F)F)c2)c2cn(C3(C)CCOC3)c(=O)cc2n1` (stereo partly drawn) [I-111], for which the half-inhibitory concentration (IC50) under setting [2] was 9 nM.
`C[C@@H](Nc1ncnc2cc(=O)n(C3(C(F)F)CC3)cc12)c1cccc(C(F)F)c1F` [I-64] displayed an IC50 under setting [1] of 8 nM.
On the same count and under the same terms, under `C[C@@H](Nc1ncnc2cc(=O)n(C34CC(C3)C4)cc12)c1cccc(C(F)F)c1F` [I-70] stands 7 nM.
`C[C@@H](Nc1ncnc2cc(=O)n(C34CCC(CC3)C4)cc12)c1cccc2c1CCC2=O` [I-109] registered an IC50 under setting [2] of 6 nM.
Regarding `Cc1nc(N[C@H](C)c2cccc(C(F)(F)F)c2C)c2cn([C@H]3C[C@H](O)C3)c(=O)cc2n1` [I-43], the IC50 under setting [1] stood at 5 nM.
Still for that read-out and setting: the result for `CCC1(n2cc3c(N[C@H](C)c4cccc(C(F)F)c4F)nc(C)nc3cc2=O)CC1` [I-5] reads 12 nM.
Still for that read-out and setting: the result for `C[C@@H](Nc1ncnc2cc(=O)n(C3CC34CC4)cc12)c1cccc(C(F)F)c1F` (stereo partly drawn) [I-66] reads 15 nM; that for `Cc1nc(N[C@H](C)c2cccc(C(F)(F)F)c2C)c2cn(C3(C)CCC3)c(=O)cc2n1` [I-42], 9 nM.
Same read-out and setting: under `Cc1nc(N[C@H](C)c2cccc(C(F)(F)F)c2)c2cn(C3CCC(F)(F)CC3)c(=O)cc2n1` [I-30] stands 39 nM.
`Cc1nc(N[C@H](C)c2cccc(C(F)(F)[C@@H]3CCCO3)c2F)c2cn(C3(C)CC3)c(=O)c(F)c2n1` [I-94] yielded an IC50 under setting [1] of 5 nM.
Still for that read-out and setting: under `Cc1nc(N[C@H](C)c2cccc(C(F)(F)F)c2)c2cn(C3CCOCC3)c(=O)cc2n1` [I-31] stands 11 nM.
Under setting [1], `C[C@@H](Nc1ncnc2cc(=O)n(C3(C(F)(F)F)CCOC3)cc12)c1cccc(C(F)F)c1F` (stereo partly drawn) [I-72] registered a concentration for half-maximal inhibition (IC50) of 11 nM.
On to `Cc1nc(N[C@H](C)c2cccc(C(F)F)c2F)c2cn(C3(C)CC3)c(=O)c(C)c2n1` [I-155], for which the IC50 under setting [2] was determined as 5 nM.
